Test results: patent US5464748A, “Method of detecting and monitoring levels of 3'-amino-3'-deoxythymidine in body fluids and antibodies for same” (The UAB Research Foundation, priority 1993, dated 1995)

Columns and labels:
[1] = system: granulocyte macrophage colony-forming units (CFU-GM); test: toxicity to granulocyte macrophage colony-forming units; type: cell-based; settings: compared with AZT
[2] = system: erythroid burst-forming units (BFU-E); test: toxicity to erythroid burst-forming units; type: cell-based; settings: compared with AZT
[3] = system: antiviral activity of AZT; test: effect of AMT on antiviral activity of AZT
[4] = system: Human Immunodeficiency Virus (HIV); settings: HIV infected patients; cited from earlier work
[5] = recently discovered; Cretton et al 1991; cited from earlier work
[6] = pharmacokinetics and metabolism of AZT: hepatic catabolites; type: in vivo, human; settings: in addition to GAZT
bone marrow cells = settings: AZT treatment; cited from earlier work

Compound: Cc1cn([C@H]2C[C@H](N)[C@@H](CO)O2)c(=O)[nH]c1=O [AMT, 3'-amino-3'-deoxythymidine]
- toxicity to CFU-GM relative to AZT [1]: many more times toxic
- toxicity to BFU-E relative to AZT [2]: many more times toxic
- effect on the antiviral activity of AZT ([3]; concentrations as low as a 1:1 molar ratio with AZT): adverse effect on the antiviral activity of AZT
- interference with the antiviral activity of AZT ([3]; stated as believed, no concentration given): believed to interfere with the antiviral activity of AZT

Compound: Cc1cn([C@H]2C[C@H](N=[N+]=[N-])[C@@H](CO)O2)c(=O)[nH]c1=O [AZT, 3'-azido-3'-deoxythymidine]
- clinical benefits [4]: increased survival, decreased number of opportunistic infections, and partial improvement in neurologic manifestations
- hepatic catabolite of AZT [5]: 3'-amino-3'-deoxythymidine (AMT)
- hepatic catabolites of AZT [6]: 3'-amino-3'-deoxythymidine (AMT) and its 5'-O-glucuronide(GAMT)
- toxicity to bone marrow cells (bone marrow cells): toxicity to bone marrow cells, manifested by anemia and neutropenia
